Measured values as given in US10835623B2, “Manganese-based chelate conjugates for molecular MR imaging” (The General Hospital Corporation, priority 2015, dated 2020).

What was measured:
[1] = read-out: Kd for HA; cited from earlier work
[2] = Relaxivity in PBS / Tris buffer / water (Bruker mq60 Minispec); format: physicochemical; conditions: 1.41 T, 37° C.
Protocol: (§1) NMR spectra were recorded on a 500 MHz Varian spectrometer at 25° C. unless otherwise noted. Chemical shifts are reported in δ (ppm). For ^1H and ^13C NMR spectra, the residual solvent peaks were used as internal reference except for ^13C NMR recorded in D2O where dioxane was used as the internal references (Fulmer, Organometallics 2010, 29, 2176.).^1 Relaxivity measurements were performed on a Bruker mq60 Minispec, 1.41 T and 37° C. Longitudinal (T1) relaxation was acquired via an inversion recovery experiment using 10 inversion times of duration ranging between 0.05×T1 and 5×T1; tranverse […] relaxation was measured using a […] spin-echo experiment. Relaxivity (r1,2) was determined from the slope of a plot of 1/T1,2 vs. [Mn] for at least 4 concentrations. The transverse (T2) relaxation times of ^17O were acquired at 11.7 T from the full-width at half-height of the H2^17O signal (Gale, Carvan, J. Am. Chem. Soc. 2013, 135, 18600). ^17O T2 relaxivity (r2^O) was calculated by dividing the Mn-imparted increase in 1/T2 relative to neat H2O (pH 3) by the Mn concentration in mM. 0.7-1.0 mL NMR samples were enriched with a 10 μL of 18% H2^17O.

[3] = test system: plasma proteins such as serum albumin; experiment: Relaxivity in human blood plasma; format: physicochemical; conditions: 1.41 T, 37° C.
Protocol: as §1
Incorporation of lipophilic functionality into the chelate-metal complexes promotes binding to plasma proteins such as serum albumin. This binding provides a change in relaxivity measured in human blood plasma compared to that measured in PBS. In most cases, a large (40-170%) increase in relaxivity (r1 or r2) is observed (Table 1).

r1 in PBS [2] [mM⁻¹ s⁻¹] | r1 in human blood plasma [3] [mM⁻¹ s⁻¹] | Substance | Kd [1] [µM]
– | – | GAHWQFNALTVR | ~1
2.7 | 5.8 | Na[Mn(PyC3A-3-ethyl ester)] [Compound 10] | –
2.5 | 3.5 | Na[Mn(PyC3A-4-methoxy-3.5-dimethyl) [Compound 13] | –
2.1 | 5.7 | Na[Mn(PyC3A-5-hydroxymethyl)] [Compound 7] | –
3.1 | 2.1 | Na[Mn(PyC3A-5-methyl ester)] [Compound 4] | –

Substance | r1 in PBS [2] [mM⁻¹ s⁻¹] | r1 in human blood plasma [3] [mM⁻¹ s⁻¹] | Kd [1] [µM]
Na[Mn(PyC3A-5-hydrazide)] [Compound 25] | 3.4 | 5.2 | –
